Measurements reported in patent US20110263507A1 (priority 2007, published 2011).
Where two headings read alike, the source gives them in different places. Where a SMILES comes first, the peptide text is derived from it. [ ]: non-standard residue; d: D form. Ala(indol-4-yl) = N[C@@H](Cc1cccc2[nH]ccc12)C(=O)O; d1Nal = N[C@H](Cc1cccc2ccccc12)C(=O)O; NMeR = CN[C@@H](CCCNC(=N)N)C(=O)O; Tle = CC(C)(C)[C@H](N)C(=O)O

Key:
[1] = Body temperature lowering in mice; assay type: in vivo; details: intraperitoneal
From the text: At time “0” baseline readings were made. […] The thermistor probe was inserted 2 cm into the rectum for the measurement of body temperature.

6-keto-prostaglandin F1α = test: Plasma prostaglandin levels after injection; assay type: in vivo; details: mice, 30 min after injection; NT69 2 mg/kg, NT79 20 mg/kg intraperitoneally; compared to saline; surrogate marker for hypotension
Procedure: Blood samples from 3 mice were pooled for each condition.
Therefore, in preliminary studies, levels of 6-keto-prostaglandin F1α immunoreactivity were measured after injection of saline, NT69, or NT79 into mice (FIG. 8).

hNTS1 = target: T1, hNTS1 (Homo sapiens, UniProt P30989); test: Radioligand competition binding with [3H]NT, membranes of CHO-K1 cells expressing hNTS1
T1 construct: expressed in transfected cells; host or cells: CHO-K1
T1 sequence (P30989 whole entry): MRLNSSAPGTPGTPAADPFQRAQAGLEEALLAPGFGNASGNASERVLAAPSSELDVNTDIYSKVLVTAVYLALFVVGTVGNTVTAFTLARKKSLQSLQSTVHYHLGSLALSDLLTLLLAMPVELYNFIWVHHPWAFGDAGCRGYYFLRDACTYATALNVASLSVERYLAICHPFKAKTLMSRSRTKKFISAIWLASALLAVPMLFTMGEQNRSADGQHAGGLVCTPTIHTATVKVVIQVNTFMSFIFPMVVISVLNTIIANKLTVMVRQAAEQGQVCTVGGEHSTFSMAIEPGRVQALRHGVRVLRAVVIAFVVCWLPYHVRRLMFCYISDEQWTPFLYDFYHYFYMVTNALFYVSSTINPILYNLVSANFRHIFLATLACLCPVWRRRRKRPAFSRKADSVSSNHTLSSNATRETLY

hNTS2 = target: T2, hNTS2 (Homo sapiens, UniProt O95665); test: Radioligand competition binding with [3H]NT, membranes of CHO-K1 cells expressing hNTS2
T2 construct: expressed in transfected cells; host or cells: CHO-K1
T2 sequence (O95665 whole entry): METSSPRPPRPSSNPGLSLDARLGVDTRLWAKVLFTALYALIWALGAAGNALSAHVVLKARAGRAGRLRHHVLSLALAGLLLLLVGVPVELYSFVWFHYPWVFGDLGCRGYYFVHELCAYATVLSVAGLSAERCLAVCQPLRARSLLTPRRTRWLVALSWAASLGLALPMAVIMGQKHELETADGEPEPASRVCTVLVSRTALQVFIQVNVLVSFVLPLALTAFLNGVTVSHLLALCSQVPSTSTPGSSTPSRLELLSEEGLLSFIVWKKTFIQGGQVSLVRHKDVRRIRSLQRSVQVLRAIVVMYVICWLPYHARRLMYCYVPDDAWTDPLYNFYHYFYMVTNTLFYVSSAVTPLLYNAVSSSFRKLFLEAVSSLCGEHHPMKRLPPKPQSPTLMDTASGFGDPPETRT
Procedure: CHO-K1 cells that had been stably transfected separately with the hNTS1 or hNTS2 genes were cultured in 150 mm (500 cm^2) Petri plates with 35 ml of Dulbecco's modified Eagle's medium containing 100 μM minimal essential medium nonessential amino acids (Life Technologies, Inc.) supplemented with 5% (v/v) FetalClone II bovine serum product (Hyclone Labs, Logan, Utah). CHO cells (subculture 7-15) were harvested at confluence by aspiration of the medium, followed by a wash with ice-cold 50 mM Tris-HCl buffer, pH=7.4, which was discarded, resuspension in 5-15 ml of Tris-HCl, scraping the cells with a plastic spatula into a centrifuge tube, and collection of cells by centrifugation at 300×g for 5 min at 4° C., in a GPR centrifuge (Beckman Instruments, Fullerton, Calif.). The cellular pellet (in Tris-HCl buffer) was stored at −180° C. until the radioligand binding was performed.
For use in binding assays, crude membrane preparations were prepared by centrifugation of the cellular pellet at 35,600×g for 10 min. The supernatant was decanted and discarded, and the cellular pellet was resuspended in 1 ml of Tris-HCl buffer followed by homogenization with a Brinkmann Polytron at setting 5.5 for 15 s. Centrifugation was repeated as above, the supernatant was decanted and discarded, and the cellular pellet was resuspended in 1 ml of Tris-HCl buffer followed by homogenization. Centrifugation was repeated a third time, the supernatant was discarded, and the final cellular pellet was suspended in 0.5-2.5 ml of Tris-HCl buffer. Protein concentration of the membrane preparation was estimated by the method of Lowry et al. using bovine serum albumin as a standard.
Incubation was at 20° C. for 40 min. The assay was routinely terminated by addition of ice-cold 0.9% NaCl (5×1.5 ml), followed by rapid filtration through a GF/B filter strip that had been pretreated with 0.2% or 2% polyethyleneimine. […] Data were analyzed using the LIGAND program.
Curves were generated using the LIGAND program. […] Data are the means of duplicate determinations and are representative results from one of at least three independent experiments.

Tail flick test = assay type: in vivo; details: rats, 20 mg/kg intraperitoneally, FIG. 6
Procedure: The tail flick test also measures changes in nociceptive threshold to thermal stimulus. The rats were administered 20 mg/kg of NT79 intraperitoneally. The rat was placed in a restrainer. Water was heated to 52° C. (52-54° C.). The rat's tail was immersed in the heated water. The latency to flick the tail was recorded. A 10 sec cutoff period was used to prevent tissue damage. Antinociception was expressed as a percentage of the Maximal Possible Effect (MPE) % MPE=100×(test latency−baseline latency)/(cutoff time {10 s}−baseline latency). Analgesic compounds will result in higher % MPE.

[2] = Acetic acid-induced writhing test; assay type: in vivo; details: rats, 20 mg/kg intraperitoneally, FIG. 7
Procedure: The writhing test was used to measure changes in the nociceptive threshold to a chemical stimulus. The rats were administered 20 mg/kg of NT79 intraperitoneally. The rats were also injected with 0.5 ml of a 2% (v/v) aqueous solution of acetic acid and placed individually in clear plastic containers for observation.
Behavioral Measure: The number of writhes was counted during a 60 min observation period. A writhe was defined as stretching of the hind limbs accompanied by a contraction of abdominal muscles. Analgesic compounds will result in lower number of writhes.

[3] = Degradation of peptides in plasma in vitro (stability to plasma peptidases); assay type: in vitro ADME; details: peptide incubated with human (FIG. 4) or rat plasma; read-out: half-lives in plasma
Procedure: All peptides that were stable (half-lives >100 h), such as NT66, NT67, NT69, NT72, and NT73, have either a blocked amino group (N-Methyl-Arg) or a D-amino in the 8 or 9 position (Table 4).

Row | Compound | effect on body temperature ([1]; 10 times the dosage of that for NT69, FIG. 5) | plasma levels of prostaglandin (6-keto-prostaglandin F1α immunoreactivity) (6-keto-prostaglandin F1α) | Kd (hNTS1) | Kd (hNTS1; Kd at hNTS1) | Kd (hNTS2) | hNTS2 Selectivity (hNTS2; Table 2, hNTS2 over hNTS1) | hNTS2 Selectivity (hNTS2; Table 4) | selectivity for hNTS2 (hNTS2; text) | antinociceptive effect in tail flick assay (Tail flick test) | antinociceptive effect in writhing pain model [2] | change in body temperature (decrease) ([1]; FIG. 5) | hNTS1 Selectivity (hNTS1; Table 2, hNTS1 over hNTS2) | Kd (hNTS1; read-out: hNTS1 Geometric Mean ∀ SEM (equilibrium dissociation constant Kd)) | half-life [3] | Kd (hNTS2; Table 2, read-out: hNTS2 Geometric Mean ∀ SEM (equilibrium dissociation constant Kd))
1 | CN[C@@H](CCCNC(=N)N)C(=O)N[C@@H](CCCNC(=N)N)C(=O)N1CCC[C@H]1C(=O)N[C@H](Cc1cccc2ccccc12)C(=O)N[C@H](C(=O)N[C@@H](CC(C)C)C(=O)O)C(C)(C)C [NT79, [N-methyl-Arg^8,D-3,1-Nal^11,tert-Leu^12]NT(8-13)] (H-[NMeR]RP[d1Nal][Tle]L-OH; C-terminus assumed) | minimal effects | no effect | 1800 nM | ~1800 nM | 22 nM | 82 | 82 | 82 fold | demonstrated antinociceptive effects | robust antinociceptive effect | – | – | – | – | –
2 | CN[C@@H](CCCNC(=N)N)C(=O)N[C@@H](CCCCN)C(=O)N1CCC[C@H]1C(=O)N[C@@H](Cc1cccc2[nH]ccc12)C(=O)N[C@H](C(=O)N[C@@H](CC(C)C)C(=O)O)C(C)(C)C [NT69L, [N-methyl-Arg^8,L-Lys^9,L-neo-Trp^11,tert-Leu^12]NT(8-13)] (H-[NMeR]KP[Ala(indol-4-yl)][Tle]L-OH; C-terminus assumed) | – | markedly elevated | – | – | – | 1.5 | 1.5 | – | – | – | about 10 °C | 0.7 | 3.1 ± 0.4 nM | > 100 h | 2.1 ± 0.2 nM
